From ChEMBL document CHEMBL3885881, “DrugMatrix”

Species on record: Rattus norvegicus
Test: DrugMatrix - Regimen: Daily Repeat
Type: toxicity, organism-based, Sprague-Dawley
Parameters: regimen Daily Repeat, gender Male, age 6-8 weeks
Conditions: in vivo, po, route oral GAVAGE, vehicle 100 % WATER; for ABSOLUTE BASOPHIL / ABSOLUTE EOSINOPHIL / ABSOLUTE LYMPHOCYTE / ABSOLUTE MONOCYTE / ABSOLUTE SEGMENTED NEUTROPHIL / BASOPHIL / EOSINOPHIL / ERYTHROCYTE COUNT / HEMATOCRIT / HEMOGLOBIN / LEUKOCYTE COUNT / LYMPHOCYTE / MEAN CORPUSCULAR HEMOGLOBIN / MEAN CORPUSCULAR HEMOGLOBIN CONCENTRATION / MEAN CORPUSCULAR VOLUME / MONOCYTE / NEUTROPHIL / NUCLEATED RED BLOOD CELLS / PLATELET COUNT: tissue Blood; for ALANINE AMINOTRANSFERASE / ALBUMIN / ALKALINE PHOSPHATASE / ASPARTATE AMINOTRANSFERASE / BLOOD UREA NITROGEN / CARBON DIOXIDE / CHLORIDE / CHOLESTEROL / CREATINE PHOSPHOKINASE / CREATININE / GLUCOSE / LACTATE DEHYDROGENASE / LIPASE / PHOSPHORUS / POTASSIUM / SODIUM / TOTAL BILIRUBIN / TOTAL PROTEIN / URIC ACID: tissue Plasma
[1] = 14 mg/kg, 72 h, dose level Low, time 3 day
[2] = 14 mg/kg, 120 h, dose level Low, time 5 day
[3] = 1500 mg/kg, 72 h, dose level High, time 3 day
[4] = 1500 mg/kg, 120 h, dose level High, time 5 day

Structure (SMILES): CN(C)[C@@H]1C(O)=C(C(N)=O)C(=O)[C@@]2(O)C(O)=C3C(=O)c4c(O)cccc4[C@@](C)(O)[C@H]3[C@H](O)[C@@H]12 [OXYTETRACYCLINE]
- ABSOLUTE BASOPHIL [1]: 0 CELLS/uL
- ABSOLUTE EOSINOPHIL [1]: 0 CELLS/uL
- ABSOLUTE LYMPHOCYTE [1]: 14072 CELLS/uL
- ABSOLUTE MONOCYTE [1]: 56.33 CELLS/uL
- ABSOLUTE SEGMENTED NEUTROPHIL [1]: 1938.33 CELLS/uL
- BASOPHIL [1]: 0%
- EOSINOPHIL [1]: 0%
- ERYTHROCYTE COUNT [1]: 5.7 x10E6/uL
- HEMATOCRIT [1]: 36.73%
- HEMOGLOBIN [1]: 14.4 G/DL
- LEUKOCYTE COUNT [1]: 16.07 x10E3/uL
- LYMPHOCYTE [1]: 87.67%
- MEAN CORPUSCULAR HEMOGLOBIN [1]: 25.27 pg
- MEAN CORPUSCULAR HEMOGLOBIN CONCENTRATION [1]: 39.27 G/DL
- MEAN CORPUSCULAR VOLUME [1]: 64.4 fL
- MONOCYTE [1]: 0.33%
- NEUTROPHIL [1]: 12%
- NUCLEATED RED BLOOD CELLS [1]: 0.33 /100WBC
- PLATELET COUNT [1]: 1430 x10E3/uL
- ALANINE AMINOTRANSFERASE [1]: 53.67 u/L
- ALBUMIN [1]: 4.57 G/DL
- ALKALINE PHOSPHATASE [1]: 372 u/L
- ASPARTATE AMINOTRANSFERASE [1]: 89.33 u/L
- BLOOD UREA NITROGEN [1]: 16.33 mg/dL
- CARBON DIOXIDE [1]: 26.67 mmol/L
- CHLORIDE [1]: 103.67 MEQ/L
- CHOLESTEROL [1]: 85.33 mg/dL
- CREATINE PHOSPHOKINASE [1]: 211.67 u/L
- CREATININE [1]: 0.27 mg/dL
- GLUCOSE [1]: 165 mg/dL
- LACTATE DEHYDROGENASE [1]: 160 u/L
- LIPASE [1]: 10 u/L
- PHOSPHORUS [1]: 13.07 mg/dL
- POTASSIUM [1]: 7.37 MEQ/L
- SODIUM [1]: 146.77 MEQ/L
- TOTAL BILIRUBIN [1]: 0.23 mg/dL
- TOTAL PROTEIN [1]: 6.17 G/DL
- URIC ACID [1]: 1.9 mg/dL
- ABSOLUTE BASOPHIL [2]: 0 CELLS/uL
- ABSOLUTE EOSINOPHIL [2]: 0 CELLS/uL
- ABSOLUTE LYMPHOCYTE [2]: 12168.33 CELLS/uL
- ABSOLUTE MONOCYTE [2]: 40 CELLS/uL
- ABSOLUTE SEGMENTED NEUTROPHIL [2]: 991.67 CELLS/uL
- BASOPHIL [2]: 0%
- EOSINOPHIL [2]: 0%
- ERYTHROCYTE COUNT [2]: 5.46 x10E6/uL
- HEMATOCRIT [2]: 35.43%
- HEMOGLOBIN [2]: 14.23 G/DL
- LEUKOCYTE COUNT [2]: 13.2 x10E3/uL
- LYMPHOCYTE [2]: 92%
- MEAN CORPUSCULAR HEMOGLOBIN [2]: 26.03 pg
- MEAN CORPUSCULAR HEMOGLOBIN CONCENTRATION [2]: 40.13 G/DL
- MEAN CORPUSCULAR VOLUME [2]: 64.83 fL
- MONOCYTE [2]: 0.33%
- NEUTROPHIL [2]: 7.67%
- NUCLEATED RED BLOOD CELLS [2]: 0 /100WBC
- PLATELET COUNT [2]: 1202.33 x10E3/uL
- ALANINE AMINOTRANSFERASE [2]: 48.67 u/L
- ALBUMIN [2]: 4.47 G/DL
- ALKALINE PHOSPHATASE [2]: 399.33 u/L
- ASPARTATE AMINOTRANSFERASE [2]: 88 u/L
- BLOOD UREA NITROGEN [2]: 16.67 mg/dL
- CARBON DIOXIDE [2]: 26.33 mmol/L
- CHLORIDE [2]: 102 MEQ/L
- CHOLESTEROL [2]: 69.33 mg/dL
- CREATINE PHOSPHOKINASE [2]: 216.67 u/L
- CREATININE [2]: 0.2 mg/dL
- GLUCOSE [2]: 150.33 mg/dL
- LACTATE DEHYDROGENASE [2]: 200.67 u/L
- LIPASE [2]: 9 u/L
- PHOSPHORUS [2]: 14.23 mg/dL
- POTASSIUM [2]: 7.61 MEQ/L
- SODIUM [2]: 147.57 MEQ/L
- TOTAL BILIRUBIN [2]: 0.17 mg/dL
- TOTAL PROTEIN [2]: 6.43 G/DL
- URIC ACID [2]: 2.1 mg/dL
- ABSOLUTE BASOPHIL [3]: 0 CELLS/uL
- ABSOLUTE EOSINOPHIL [3]: 0 CELLS/uL
- ABSOLUTE LYMPHOCYTE [3]: 13408.67 CELLS/uL
- ABSOLUTE MONOCYTE [3]: 33.33 CELLS/uL
- ABSOLUTE SEGMENTED NEUTROPHIL [3]: 1491.33 CELLS/uL
- BASOPHIL [3]: 0%
- EOSINOPHIL [3]: 0%
- ERYTHROCYTE COUNT [3]: 5.4 x10E6/uL
- HEMATOCRIT [3]: 33.33%
- HEMOGLOBIN [3]: 13.33 G/DL
- LEUKOCYTE COUNT [3]: 14.93 x10E3/uL
- LYMPHOCYTE [3]: 90.67%
- MEAN CORPUSCULAR HEMOGLOBIN [3]: 24.7 pg
- MEAN CORPUSCULAR HEMOGLOBIN CONCENTRATION [3]: 40.03 G/DL
- MEAN CORPUSCULAR VOLUME [3]: 61.67 fL
- MONOCYTE [3]: 0.33%
- NEUTROPHIL [3]: 9%
- NUCLEATED RED BLOOD CELLS [3]: 0 /100WBC
- PLATELET COUNT [3]: 1276 x10E3/uL
- ALANINE AMINOTRANSFERASE [3]: 67 u/L
- ALBUMIN [3]: 4.17 G/DL
- ALKALINE PHOSPHATASE [3]: 287.67 u/L
- ASPARTATE AMINOTRANSFERASE [3]: 90.33 u/L
- BLOOD UREA NITROGEN [3]: 14 mg/dL
- CARBON DIOXIDE [3]: 30 mmol/L
- CHLORIDE [3]: 103 MEQ/L
- CHOLESTEROL [3]: 93 mg/dL
- CREATINE PHOSPHOKINASE [3]: 208.33 u/L
- CREATININE [3]: 0.2 mg/dL
- GLUCOSE [3]: 142.33 mg/dL
- LACTATE DEHYDROGENASE [3]: 267.67 u/L
- LIPASE [3]: 10 u/L
- PHOSPHORUS [3]: 13.33 mg/dL
- POTASSIUM [3]: 6.65 MEQ/L
- SODIUM [3]: 147.53 MEQ/L
- TOTAL BILIRUBIN [3]: 0.1 mg/dL
- TOTAL PROTEIN [3]: 5.63 G/DL
- URIC ACID [3]: 1.47 mg/dL
- ABSOLUTE BASOPHIL [4]: 0 CELLS/uL
- ABSOLUTE EOSINOPHIL [4]: 0 CELLS/uL
- ABSOLUTE LYMPHOCYTE [4]: 10152.67 CELLS/uL
- ABSOLUTE MONOCYTE [4]: 25.33 CELLS/uL
- ABSOLUTE SEGMENTED NEUTROPHIL [4]: 755.33 CELLS/uL
- BASOPHIL [4]: 0%
- EOSINOPHIL [4]: 0%
- ERYTHROCYTE COUNT [4]: 5.33 x10E6/uL
- HEMATOCRIT [4]: 34.37%
- HEMOGLOBIN [4]: 13.93 G/DL
- LEUKOCYTE COUNT [4]: 10.93 x10E3/uL
- LYMPHOCYTE [4]: 92.33%
- MEAN CORPUSCULAR HEMOGLOBIN [4]: 26.17 pg
- MEAN CORPUSCULAR HEMOGLOBIN CONCENTRATION [4]: 40.53 G/DL
- MEAN CORPUSCULAR VOLUME [4]: 64.53 fL
- MONOCYTE [4]: 0.33%
- NEUTROPHIL [4]: 7.33%
- NUCLEATED RED BLOOD CELLS [4]: 0.33 /100WBC
- PLATELET COUNT [4]: 1197.33 x10E3/uL
- ALANINE AMINOTRANSFERASE [4]: 58 u/L
- ALBUMIN [4]: 4.37 G/DL
- ALKALINE PHOSPHATASE [4]: 321.33 u/L
- ASPARTATE AMINOTRANSFERASE [4]: 83.33 u/L
- BLOOD UREA NITROGEN [4]: 16 mg/dL
- CARBON DIOXIDE [4]: 26.33 mmol/L
- CHLORIDE [4]: 100.33 MEQ/L
- CHOLESTEROL [4]: 75.67 mg/dL
- CREATINE PHOSPHOKINASE [4]: 222.33 u/L
- CREATININE [4]: 0.32 mg/dL
- GLUCOSE [4]: 138 mg/dL
- LACTATE DEHYDROGENASE [4]: 303 u/L
- LIPASE [4]: 11 u/L
- PHOSPHORUS [4]: 13.23 mg/dL
- POTASSIUM [4]: 6.84 MEQ/L
- SODIUM [4]: 146.1 MEQ/L
- TOTAL BILIRUBIN [4]: 0.1 mg/dL
- TOTAL PROTEIN [4]: 6.3 G/DL
- URIC ACID [4]: 1.47 mg/dL
